According to patent publication US20230065814A1, “CONJUGATES OF-ELECTRON-PAIR-DONATING HETEROAROMATIC NITROGEN-COMPRISING COMPOUNDS” (Ascendis Pharma A/S, priority 2019, published 2023):

Assay: In vitro release kinetics (Example 34): cleavage rate of the reversible bond at pH 7.4 and 37° C. in aqueous buffer
Type: physicochemical
Settings: aqueous sodium phosphate buffer, read-out: t1/2 (pH 7.4) (converted)
Method: For soluble examples disappearance of the conjugate was determined by LCMS (UV detection) and fitted with curve fitting software to obtain the preliminary half-life of the release. For insoluble examples (hydrogels) the increase in released heteroaromatic moiety containing molecule in the supernatant was determined by LCMS (UV detection) and used as input for the curve fitting software to obtain the preliminary half-life of the release.
Compounds marked with “**” were synthesized for comparison.

Row | half-life | Compound
1 | 0.0833 days | CC(C)(C)OC(=O)n1nc(C(=O)O)c2ccccc21 [Compound 6c]
2 | 12 days | O=C(O)CCCCCNC(=O)[C@@H]1CCCN1C(=O)n1nc(C(=O)O)c2ccccc21 [Compound 8d]
3 | 1 days | CC(=O)N[C@H](C(=O)O)[C@H](C)OC(=O)n1nc(C(=O)O)c2ccccc21 [Compound 6e]
4 | 2.4 days | C[C@@H](CC(=O)NCCCCCC(=O)O)NC(=O)CN(C)C(=O)n1nc(C(=O)O)c2ccccc21 [Compound 8a]
5 | 39 days | O=C(O)CCNC(=O)[C@H]1CC[C@H](OC(=O)n2nc(C(=O)O)c3ccccc32)CC1 [Compound 6f]
6 | > 180 days | CC(C)[C@H](NC(=O)CN(C)C(=O)n1nc(C(=O)O)c2ccccc21)C(=O)O [Compound 7c]
7 | 21 days | CCCCOC(=O)n1nc(C(=O)O)c2ccccc21 [Compound 6a]
8 | 164 days | CN(C)CCCN(C)C(=O)n1nc(C(=O)O)c2ccccc21 [Compound 7k]
9 | 0.121 days | CN(C)CCN(C)C(=O)n1nc(C(=O)O)c2ccccc21 [Compound 7j]
10 | 9.6 days | CCN(CC(=O)NCCCCCC(=O)O)C(=O)n1nc(C(=O)O)c2ccccc21 [Compound 7f]
11 | 8.1 days | CCCNC(=O)CN(CC)C(=O)n1nc(C(=O)O)c2ccccc21 [Compound 7h]
12 | 99 days | CCCC(C)OC(=O)n1nc(C(=O)O)c2ccccc21 (stereo not shown) [Compound 6b]
13 | > 180 days | CCCNC(=O)CCN(C)C(=O)n1nc(C(=O)O)c2ccccc21 [Compound 7d]
14 | 3.5 days | CCCNC(=O)CN(C)C(=O)n1nc(C(=O)O)c2ccccc21 [Compound 7a]
15 | 13 days | C[C@@H](C(=O)NCCCCCC(=O)O)N(C)C(=O)n1nc(C(=O)O)c2ccccc21 [Compound 8c]
16 | < 0.000694 days | CNCCNC(=O)[C@H](CC(=O)n1ncc2ccccc21)N(C)C(=O)CCCCCS(=O)(=O)O [1 h]
17 | 52 days | CCN(CC(=O)NC(C)CCCCC(=O)O)C(=O)n1nc(C(=O)O)c2ccccc21 (stereo not shown) [Compound 7e]
18 | 36 days | CC(CCC(=O)NCCC(=O)O)OC(=O)n1nc(C(=O)O)c2ccccc21 (stereo not shown) [Compound 6d]
19 | 17 days | CCC(C)NC(=O)CN(C)C(=O)n1nc(C(=O)O)c2ccccc21 (stereo not shown) [Compound 7b]
20 | 7.7 days | CCN(CC(=O)NCCC(=O)O)C(=O)n1nc(C(=O)O)c2ccccc21 [Compound 7g]
21 | > 180 days | CCCNC(=O)n1nc(C(=O)O)c2ccccc21 [Compound 7i]
22 | 0.342 days | C[C@H](NC(=O)CN(C)C(=O)n1nc(C(=O)O)c2ccccc21)C(=O)NCCCCCC(=O)O [Compound 8b]

Assay: In vitro release kinetics (Example 69): cleavage rate of the reversible bond at pH 7.4 and 37° C. in aqueous buffer
Type: physicochemical
Settings: aqueous sodium phosphate buffer
Method: The cleavage rate of the reversible bond from conjugates 18, 20, 23 was monitored at pH 7.4 and 37° C. in aqueous buffer (pH 7.4 48 mM sodium phosphate, 20% acetonitrile). Disappearance of the conjugate was determined by LCMS (UV detection) and fitted with curve fitting software to obtain the half-life of the release.

Row | half-life | Compound
23 | 744 h | CN(C)CCN(C)C(=O)n1ccc2cc(C(=O)O)ccc21 [Compound 23]
24 | 40.8 h | CC(CCCCC(=O)O)NC(=O)CN(C)C(=O)n1ccnc1 (stereo not shown) [Compound 18]
25 | 43.2 h | COC(=O)c1ccc2ncn(C(=O)N(C)CC(=O)NC(C)CCCCC(=O)O)c2c1 (stereo not shown) [Compound 20]

Assay: In vitro release kinetics (Example 59): cleavage rate of the reversible bond at 37° C. in aqueous buffer, conditions A-F
Type: physicochemical
Settings: aqueous sodium phosphate buffer, pH 7.4
Method: The cleavage rate of the reversible bond from conjugates 9a-d, 13a-e and 17b-q was monitored at 37° C. in aqueous buffer (condition A: pH 7.4 60 mM sodium phosphate, 1% acetonitrile, B: pH 7.4 48 mM sodium phosphate, 20% acetonitrile, 0.1% Pluronic F68, C: pH 7.4 48 mM sodium phosphate with 16 mM L-Methionine 2.4 mM EDTA, 0.1% pluronic and 20% acetonitrile, D: pH 7.0 48 mM sodium phosphate with 16 mM L-Methionine 2.4 mM EDTA, 0.1% pluronic and 20% acetonitrile, E: pH 7.4 60 mM sodium phosphate, F: pH 7.4 48 mM sodium phosphate, 20% acetonitrile). For soluble examples disappearance of the conjugate was determined by LCMS (UV detection) and fitted with curve fitting software to obtain the half-life of the release. For insoluble examples (hydrogels) the increase in released axitinib in the supernatant was determined by LCMS (UV detection) and used as input for the curve fitting software to obtain the half-life of the release. Release rates at pH 7.4 for conjugates only incubated at pH 7.0 are estimated to increase by a factor of 2 to 3.
The compounds marked with “*” are not in accordance with the present invention as they were for efficiency reasons not linked to a moiety Z. Nevertheless, they show the release half-lives of such moieties -L^1-.

Row | half-life | Compound
26 | 96 h | CCN(CC(=O)NCCC(=O)O)C(=O)n1nc(/C=C/c2ccccn2)c2ccc(Sc3ccccc3C(=O)NC)cc21 [Compound 9a]
27 | 101 h | C[C@@H](CC(=O)N(C)CCC(=O)O)NC(=O)CN(C)C(=O)n1nc(C(=O)O)c2ccccc21 [Compound 13a]
28 | 86.4 h | C[C@@H](CC(=O)O)NC(=O)C[C@H](C)NC(=O)CN(C)C(=O)n1nc(C(=O)O)c2ccccc21 [Compound 13b]
29 | 1130 h | CNC(=O)c1ccccc1Sc1ccc2c(/C=C/c3ccccn3)nn(C(=O)N(C)CC(=O)N[C@H](C(=O)O)C(C)C)c2c1 [Compound 9c]
30 | 108 h | O=C(O)CCCCCNC(=O)CONC(=O)CNC(=O)n1nc(C(=O)O)c2ccccc21 [Compound 13e]
31 | 276 h | CNC(=O)c1ccccc1Sc1ccc2c(/C=C/c3ccccn3)nn(C(=O)N(C)CC(=O)N[C@@H](C)CC(=O)O)c2c1 [Compound 9b]
32 | 166 h | C[C@@H](CCC(=O)NCCCCCC(=O)O)NC(=O)CN(C)C(=O)n1nc(C(=O)O)c2ccccc21 [Compound 13c]
33 | 76.8 h | CCN(CC(=O)NCCOCCOCC(=O)O)C(=O)n1nc(C(=O)O)c2ccccc21 [Compound 13d]

Row | Compound | half-life
34 | CCN(CC(=O)NCCCCCC(=O)O)C(=O)n1nc(/C=C/c2ccccn2)c2ccc(Sc3ccccc3C(=O)NC)cc21 [Compound 9d] | 110 h
